Assay results taken from US20100016213A1, “USE OF A DITERPENOID COMPOUND FOR TREATING DIABETES” (National Taiwan University, priority 2008, published 2010).

Columns and labels:
Assay type in all cases: in vivo
[1] = system: STZ-diabetic mice (IDDM); test: Plasma insulin levels before and after treatment (Insulin ELISA), STZ-diabetic mice; details: for Plasma insulin, Pre-treatment: before treatment; for Plasma insulin, post-treatment: one hour after treatment
Description: (§1) Normal mice, STZ-induced diabetic mice, and diet-induced diabetic mice were administered with a vehicle control, borapetoside A (5.0 mg/kg), borapetoside C (at various doses), glibenclamide (5.0 mg/kg) or metformin (500 mg/kg) by intraperitoneal injection. These mice were examined for their blood insulin levels before and one hour after treatment, using the Insulin(Rat) ELISA kit obtained from Penisula Lab. Inc., San Carlos, Calif., USA.

[2] = system: DIO-induced diabetic mice(NIDDM); test: Glycogen content in skeletal muscle, DIO-induced diabetic mice; details: 5 mg/kg i.p., 30 minutes after injection
Description: Normal, STZ-induced diabetic, and DIO-induced diabetic mice were intraeritoneally injected with borapetoside C (5 mg/kg) and Actrapid (0.5 IU/kg; a short-acting insulin provided by Novo Nordisk) or metformin (500 mg/kg). Their glycogen contents in skeletal muscle were determined 30 minutes after injections.

[3] = system: Diet-induced diabetic (NIDDM) mice; test: Plasma insulin levels before and after treatment (Insulin ELISA), diet-induced diabetic mice; details: for Plasma insulin, Pre-treatment: before treatment; for Plasma insulin, post-treatment: one hour after treatment
Description: as §1

[4] = system: Normal ICR mice; test: Intraperitoneal glucose tolerance test (IPGTT), normal ICR mice; details: borapetoside C 5.0 mg/kg
Description: Normal ICR mice and DIO-induced diabetic mice, treated with borapetoside C (5.0 mg/kg), a vehicle control, or glibenclamide (positive control), were subjected to an intraperitoneal glucose tolerance test (IPGTT) as described in Lamont et al., Diabetes 2008; 57: 190-198. More specifically, glucose (2.0 mg/g body weight) was administered via IP injection to normal and DIO mice and blood samples were drawn from the treated mice before and 30, 60, 120, and 150 min after glucose administration for examination of glucose levels.
In normal mice treated with borapetoside C, the vehicle control, and glibenclamide, the basal plasma glucose concentrations were 106.8±4.7 mg/dL, 114.7±4.6 mg/dL, and 104.9±3.1 mg/dL, respectively. Thirty minutes after intraperitoneal glucose injection, the plasma glucose concentration was elevated to 346.2±14.7 mg/dL in vehicle-treated mice, to 292.9±10.9 mg/dL in borapetoside C-treated mice, or to 273.4±13.6 mg/dL in glibenclamide-treated mice.

[5] = system: normal mice; test: Plasma insulin levels before and after treatment (Insulin ELISA), normal mice; details: for Plasma insulin, Pre-treatment: before treatment; for Plasma insulin, post-treatment: one hour after treatment
Description: as §1

[6] = system: normal mice; test: Lowering plasma glucose levels via oral administration, normal mice; details: oral 10.0 mg/kg, sixty minutes after treatment, mean ± SEM, six animals
Description: Normal, STZ-induced diabetic mice, and diet-induced diabetic mice were administered orally with 10.0 mg/kg borapetoside C, glibenclamide or metformin as a positive control, and a vehicle control. The plasma glucose levels of the treated mice were determined before and sixty minutes after treatment and the results thus obtained were shown in Table 3 below.

[7] = system: liver phosphoenolpyruvate carboxykinase (PEPCK); test: Liver PEPCK levels by western blot in STZ-induced mice; details: borapetoside C 5.0 mg/kg, twice per day for 7 days, insulin dose not given
Description: To characterize the effect of borapetoside C on liver glucose utilization, levels of liver phosphoenolpyruvate carboxykinase (PEPCK) were examined by western blot analysis in STZ-induced mice treated with borapetoside C (5.0 mg/kg, twice per day for 7 days), insulin, or a vehicle control.

[8] = system: normal mice; test: Lowering plasma glucose level, intraperitoneal injection, normal mice; details: for Plasma Glucose Level, After / Plasma Glucose Level, Before: Normal mice; for Plasma Glucose Level, After: after treatment; for Plasma Glucose Level, Before: before treatment
Description: (§2) Normal and streptozotocin (STZ)-induced diabetic mice were administered with borapetoside A (5.0 mg/kg), borapetoside C (5.0 mg/kg), glibenclamide (5.0 mg/kg), metformin (500.0 mg/kg), or a vehicle control via intraperitoneal injection. STZ-induced diabetic mice are a well-known mouse model of type I diabetes (insulin dependent). See, e.g., Liu I M, et al., Neuroscience Letters 2001; 307: 81-84. Glibenclamide and metformin serve as two positive controls in this study.
(§3) The plasma glucose levels of the treated mice were determined before and one hour after administration. The activity of lowering plasma glucose levels (AL) is calculated following the formula: […]
(§4) Borapetoside C was administered to normal mice at 0.1, 1.0, 3.0, and 5.0 mg/kg and to STZ-diabetic mice at 0.1, 1.0, 3.0, and 5.0 mg/kg. The plasma glucose levels of the treated mice were examined before and after treatment.

[9] = system: STZ-induced diabetic mice; test: Lowering plasma glucose level, intraperitoneal injection, STZ-induced diabetic mice (type I diabetes model); details: for Plasma Glucose Level, After: after treatment; for Plasma Glucose Level, Before: before treatment
Description: as §2, §3, §4

[10] = system: DIO-induced diabetic mice; test: Insulin sensitivity: plasma glucose reduction with insulin plus borapetoside C or vehicle, DIO-induced diabetic mice; details: thirty minutes after insulin
Description: The effect of borapetoside C on insulin sensitivity was tested following the method described in Liu, et al., Clinical and Experimental Pharmacology and Physiology 2005; 32: 649-654. Normal mice (n=6), STZ-induced diabetic mice (n=5), and DIO-induced diabetic mice (n=7) were treated with insulin at various doses (i.e., 0.1 IU/kg, 0.5 IU/kg, and 1.0 IU/kg) together with either borapetoside C (0.1 mg/kg) or a vehicle control. Their plasma glucose levels were examined before and thirty minutes after insulin administration. The activity of lowering plasma glucose levels (AL) was calculated following the formula described in Example 2 above.

## COC(=O)C1=CCC[C@H]2[C@]3(C)C[C@@H](c4ccoc4)OC(=O)[C@@H]3C[C@@H](O[C@@H]3O[C@H](CO)[C@@H](O)[C@H](O)[C@H]3O)[C@@]12C [borapetoside C]
[1]; 0.1 mg/kg i.p.
  Plasma insulin, Pre-treatment: 15.2 ± 0.8 pmol/L
  Plasma insulin, post-treatment: 16.3 ± 0.9 pmol/L
[1]; 0.5 mg/kg i.p.
  Plasma insulin, Pre-treatment: 15.5 ± 0.6 pmol/L
  Plasma insulin, post-treatment: 15.9 ± 0.6 pmol/L
[1]; 1.0 mg/kg i.p.
  Plasma insulin, Pre-treatment: 15.7 ± 0.8 pmol/L
  Plasma insulin, post-treatment: 15.9 ± 0.4 pmol/L
[1]; 3.0 mg/kg i.p.
  Plasma insulin, Pre-treatment: 13.8 ± 1.6 pmol/L
  Plasma insulin, post-treatment: 14.8 ± 0.5 pmol/L
[1]; 5.0 mg/kg i.p.
  Plasma insulin, Pre-treatment: 15.0 ± 0.5 pmol/L
  Plasma insulin, post-treatment: 14.4 ± 0.6 pmol/L
[2]
  Glycogen content (μmol/g wet weight): 23.3 ± 0.4 μmol/g wet weight
[3]; 0.1 mg/kg i.p.
  Plasma insulin, Pre-treatment: 110.3 ± 4.5 pmol/L
  Plasma insulin, post-treatment: 114.0 ± 7.6 pmol/L
[3]; 0.5 mg/kg i.p.
  Plasma insulin, Pre-treatment: 116.5 ± 5.7 pmol/L
  Plasma insulin, post-treatment: 174.7 ± 4.8 pmol/L
[3]; 1.0 mg/kg i.p.
  Plasma insulin, Pre-treatment: 111.1 ± 2.0 pmol/L
  Plasma insulin, post-treatment: 178.5 ± 14.6 pmol/L
[3]; 3.0 mg/kg i.p.
  Plasma insulin, Pre-treatment: 113.2 ± 2.8 pmol/L
  Plasma insulin, post-treatment: 254.0 ± 23.4 pmol/L
[3]; 5.0 mg/kg i.p.
  Plasma insulin, Pre-treatment: 107.4 ± 5.5 pmol/L
  Plasma insulin, post-treatment: 255.8 ± 15.9 pmol/L
[4]; before glucose injection
  basal plasma glucose concentration (IPGTT): 106.8 ± 4.7 mg/dL
[4]; glucose 2.0 mg/g IP
  plasma glucose levels at 60 min, 120 min, and 150 min versus control mice (IPGTT): significantly lower
[4]; glucose 2.0 mg/g body weight IP, vehicle 346.2±14.7
  plasma glucose concentration thirty minutes after intraperitoneal glucose injection (IPGTT): 292.9 ± 10.9 mg/dL
[5]; 0.1 mg/kg i.p.
  Plasma insulin, Pre-treatment: 54.0 ± 3.4 pmol/L
  Plasma insulin, post-treatment: 71.5 ± 5.3 pmol/L
[5]; 0.5 mg/kg i.p.
  Plasma insulin, Pre-treatment: 52.2 ± 3.0 pmol/L
  Plasma insulin, post-treatment: 65.7 ± 9.8 pmol/L
[5]; 1.0 mg/kg i.p.
  Plasma insulin, Pre-treatment: 58.9 ± 3.5 pmol/L
  Plasma insulin, post-treatment: 65.0 ± 6.0 pmol/L
[5]; 3.0 mg/kg i.p.
  Plasma insulin, Pre-treatment: 52.0 ± 3.7 pmol/L
  Plasma insulin, post-treatment: 142.6 ± 29.2 pmol/L
[5]; 5.0 mg/kg i.p.
  Plasma insulin, Pre-treatment: 56.6 ± 2.3 pmol/L
  Plasma insulin, post-treatment: 139.4 ± 25.5 pmol/L
[6]
  Activity of lowing plasma glucose levels (%): 23.1 ± 2.8 %
[7]
  liver PEPCK levels versus vehicle control-treated mice (western blot): much lower
[8]; 0.1 mg/kg
  Plasma Glucose Level, After: 97.7 ± 6.2 mg/dL
  Plasma Glucose Level, Before: 99.7 ± 3.8 mg/dL
[8]; 1.0 mg/kg
  Plasma Glucose Level, After: 82.6 ± 2.9 mg/dL
  Plasma Glucose Level, Before: 96.4 ± 4.2 mg/dL
[8]; 3.0 mg/kg
  Plasma Glucose Level, After: 79.4 ± 6.9 mg/dL
  Plasma Glucose Level, Before: 96.3 ± 8.0 mg/dL
[8]; 5.0 mg/kg
  Plasma Glucose Level, After: 67.0 ± 4.5 mg/dL
  Plasma Glucose Level, Before: 98.2 ± 3.9 mg/dL
[8]; normal mice, 5.0 mg/kg intraperitoneal injection, one hour after administration
  Activities of Lowering Plasma Glucose Levels (AL): 36.2 ± 5.6%
[9]; 0.1 mg/kg
  Plasma Glucose Level, After: 529.0 ± 14.7 mg/dL
  Plasma Glucose Level, Before: 580.0 ± 7.8 mg/dL
[9]; 1.0 mg/kg
  Plasma Glucose Level, After: 472.2 ± 13.9 mg/dL
  Plasma Glucose Level, Before: 566.6 ± 11.4 mg/dL
[9]; 3.0 mg/kg
  Plasma Glucose Level, After: 493.8 ± 15.3 mg/dL
  Plasma Glucose Level, Before: 572.2 ± 16.2 mg/dL
[9]; 5.0 mg/kg intraperitoneal injection, one hour after administration
  Activities of Lowering Plasma Glucose Levels (AL): 16.5 ± 2.9%
[9]; 5.0 mg/kg
  Plasma Glucose Level, After: 481.1 ± 20.8 mg/dL
  Plasma Glucose Level, Before: 576.0 ± 11.1 mg/dL
[10]; Borapetoside C 0.1 mg/kg together with Insulin 0.1 IU/kg
  AL (%): 24.0 ± 1.1%
[10]; Borapetoside C 0.1 mg/kg together with Insulin 0.5 IU/kg
  AL (%): 31.6 ± 1.6%
[10]; Borapetoside C 0.1 mg/kg together with Insulin 1.0 IU/kg
  AL (%): 42.5 ± 0.8 %
